Measured values reported in ChEMBL document CHEMBL4715826, “Selective PPARδ Modulators Improve Mitochondrial Function: Potential Treatment for Duchenne Muscular Dystrophy (DMD)” (ACS Med Chem Lett, 2018).

What was measured:
[1] = Clearance in CD-1 mouse at 3 mg/kg, iv; format: ADME, organism-based; details: in vivo
[2] = Half life in CD-1 mouse at 3 mg/kg, iv; format: ADME, organism-based; details: in vivo
[3] = target: T1, Peroxisome proliferator-activated receptor alpha (Homo sapiens, UniProt Q07869); assay: Modulator activity at GAL4-fused human PPARalpha LBD (unknown origin) transfected in African green monkey CV1 cells assessed as receptor transactivation by luciferase reporter gene assay; format: cell-based, CV-1
T1 sequence (Q07869 whole entry): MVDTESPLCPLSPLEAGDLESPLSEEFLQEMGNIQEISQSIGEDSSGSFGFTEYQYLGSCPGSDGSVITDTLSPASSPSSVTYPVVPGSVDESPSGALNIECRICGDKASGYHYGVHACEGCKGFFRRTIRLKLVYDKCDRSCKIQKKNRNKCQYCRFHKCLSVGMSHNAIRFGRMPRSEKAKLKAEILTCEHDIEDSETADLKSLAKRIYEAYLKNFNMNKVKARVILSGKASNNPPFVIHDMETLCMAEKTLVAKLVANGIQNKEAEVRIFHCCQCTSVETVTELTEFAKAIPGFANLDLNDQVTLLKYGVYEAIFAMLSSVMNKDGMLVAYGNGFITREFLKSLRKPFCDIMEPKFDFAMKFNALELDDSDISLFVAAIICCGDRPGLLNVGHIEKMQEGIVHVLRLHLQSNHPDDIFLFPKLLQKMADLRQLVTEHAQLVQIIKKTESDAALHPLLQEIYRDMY

[4] = AUC in CD-1 mouse at 3 mg/kg, iv; format: ADME, organism-based; set-up: dose 3 mg/kg; details: in vivo
[5] = target: T2, Peroxisome proliferator-activated receptor gamma (Homo sapiens, UniProt P37231); assay: Modulator activity at GAL4-fused human PPARgamma LBD (unknown origin) transfected in African green monkey CV1 cells assessed as receptor transactivation by luciferase reporter gene assay; format: cell-based, CV-1
T2 sequence (P37231 whole entry): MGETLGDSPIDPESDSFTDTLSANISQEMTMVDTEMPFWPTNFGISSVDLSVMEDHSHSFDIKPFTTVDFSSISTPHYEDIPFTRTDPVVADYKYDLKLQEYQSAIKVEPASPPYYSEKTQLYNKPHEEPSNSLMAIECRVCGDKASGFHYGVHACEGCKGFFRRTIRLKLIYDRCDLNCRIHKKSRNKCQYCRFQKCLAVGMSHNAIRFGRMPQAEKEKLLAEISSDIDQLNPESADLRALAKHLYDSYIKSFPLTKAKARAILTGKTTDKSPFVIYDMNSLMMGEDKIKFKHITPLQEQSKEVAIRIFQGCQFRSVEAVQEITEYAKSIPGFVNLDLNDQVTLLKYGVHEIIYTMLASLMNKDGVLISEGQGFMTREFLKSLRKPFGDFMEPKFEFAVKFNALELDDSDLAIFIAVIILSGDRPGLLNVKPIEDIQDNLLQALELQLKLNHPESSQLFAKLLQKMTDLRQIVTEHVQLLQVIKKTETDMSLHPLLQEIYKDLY

[6] = target: T3, Peroxisome proliferator-activated receptor delta (Homo sapiens, UniProt Q03181)
T3 sequence (Q03181 whole entry): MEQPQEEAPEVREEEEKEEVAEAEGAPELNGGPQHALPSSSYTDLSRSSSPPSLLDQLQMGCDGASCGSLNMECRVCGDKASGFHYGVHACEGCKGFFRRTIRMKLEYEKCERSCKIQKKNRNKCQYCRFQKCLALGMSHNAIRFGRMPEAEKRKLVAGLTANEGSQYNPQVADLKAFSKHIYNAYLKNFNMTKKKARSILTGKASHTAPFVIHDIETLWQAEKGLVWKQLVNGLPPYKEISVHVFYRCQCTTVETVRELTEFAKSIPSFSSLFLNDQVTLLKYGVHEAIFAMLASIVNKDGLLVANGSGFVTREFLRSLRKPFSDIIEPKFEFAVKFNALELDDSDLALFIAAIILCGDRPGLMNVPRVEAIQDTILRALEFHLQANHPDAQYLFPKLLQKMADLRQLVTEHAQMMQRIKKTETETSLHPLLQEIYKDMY
Description: Modulator activity at GAL4-fused human PPARdelta LBD (128 to residue at C-terminus) transfected in African green monkey CV1 cells assessed as receptor transactivation by luciferase reporter gene assay

[7] = Half life in CD-1 mouse at 1 mg/kg, iv; format: ADME, organism-based; details: in vivo
[8] = AUC in CD-1 mouse at 1 mg/kg, iv; format: ADME, organism-based; set-up: dose 1 mg/kg; details: in vivo
[9] = Selectivity index, ratio of EC50 for transactivation of GAL4-fused PPARalpha LBD (unknown origin) transfected in CV1 cells to EC50 for transactivation of GAL4-fused human PPARdelta LBD (128 to residue at C-terminus) transfected in African green monkey CV1 cells by luciferase reporter gene assay

Row | SMILES | clearance [1] [mL/min/kg] | half-life [2] [min] | EC50 [3] [µM] | AUC [4] [ng·h/mL] | EC50 [5] [µM] | EC50 [6] [nM] | half-life [7] [min] | AUC [8] [ng·h/mL] | Ratio EC50 [9]
1 | Cc1cnc(-c2ccc(-c3ccco3)cc2)n1Cc1ccccc1OCCC[C@@H](C)CC(=O)O | 73 | 84 | > 100 | 650 | > 10 | – | – | – | –
2 | Cc1ccc(-c2ncc(C)n2Cc2ccccc2OCCC[C@@H](C)CC(=O)O)cc1 | – | – | 78.5 | – | > 10 | 20 | – | – | –
3 | Cc1cnc(-c2ccc(Cl)c(F)c2)n1Cc1ccccc1OCCC[C@@H](C)CC(=O)O | – | – | 69 | – | > 10 | – | 258 | 440 | –
4 | C/C(=C\COc1ccccc1Cc1c(-c2ccc(-c3ccco3)cc2)noc1C)CCC(=O)O | 180 | 12 | 5.84 | 280 | > 10 | 1.5 | – | – | >1000
5 | C/C(=C\COc1ccccc1Cn1c(C)cnc1-c1ccc(OC(F)(F)F)cc1)CCC(=O)O | 70 | 186 | 2.29 | – | > 10 | 0.3 | – | 240 | –
6 | Cc1cnc(-c2ccc(Cl)cc2)n1Cc1ccccc1OCCC[C@@H](C)CC(=O)O | – | – | > 100 | – | > 10 | 5.5 | 84 | 752 | –
7 | C/C(=C\COc1ccccc1Cc1c(C)nnn1-c1ccc(-c2ccco2)cc1)CCC(=O)O | 225 | 12 | 16.8 | 220 | > 10 | 8.4 | – | – | >1000
8 | C/C(=C\COc1ccccc1Cc1sc(C)nc1-c1ccc(-c2ccco2)cc1)CCC(=O)O | 55 | 48 | 7.25 | 900 | > 10 | 9.5 | – | – | >1000
